The text below walks through data of patent US20110178104A1, “Anti-Heparin Compounds” (POLYMEDIX INC., priority 2010, published 2011).

Assay [1] deals with Unfractionated heparin. Nature of the assay: aPTT clotting assay, UFH 0.4 U/mL in plasma (Example 10). In kind it is biochemical. The conditions noted are these: unfractionated heparin 0.4 U/mL in plasma; aPTT clotting. As for the experimental part: aPTT clotting Assay: Unfractionated heparin was mixed with plasma at a final concentration of 0.4 U/mL (or concentration which increases aPTT time to between 120 and 300 seconds). […] The ACL Elite Hemostasis analyzer (Beckman Coulter™) was used to add aPTT reagent (HemosIL SynthASil) to supplemented plasma. Clotting was initiated by addition of CaCl2 and time to clot was recorded.

Assay [2] relates to enoxaparin. In words: FXa amidolytic assay (Example 10), enoxaparin. The conditions noted are these: read-out: Enox FXa EC50; enoxaparin 0.1 ug/ml; human antithrombin, bovine Factor Xa.
Method: (§1) Two μl of test agent are added (range between 0.01 and 23 ug/ml) and incubated for 5 minutes at 23° C. Bovine Factor Xa was added to a final concentration of 0.636 nkat/mL and incubated for a further 10 minutes at 23° C.
The test system of assay [3] is tinzaparin. Nature of the assay: FXa amidolytic assay (Example 10), tinzaparin. The conditions noted are these: read-out: Tinzap FXa EC50; tinzaparin 0.1 ug/ml; human antithrombin, bovine Factor Xa.
Method: as §1
Assay [4] deals with fondaparinux. Nature of the assay: FXa amidolytic assay (Example 10), fondaparinux. The conditions noted are these: read-out: Fondap FXa EC50; fondaparinux 0.02 μg/mL; human antithrombin, bovine Factor Xa.
Method: as §1

Each structure is given as a SMILES string. Values joined by “and” are separate entries in the source; they are usually repeats but may differ in a detail not shown here. Equal values may be shown once.

Turning to `COc1ccc(NC(=O)[C@@H](CCCNC(=N)N)NC(=O)c2cc(NC(=O)[C@@H](CCCNC(N)=O)NC(=O)c3cc(NC(=O)[C@@H](CCCNC(=N)N)NC(=O)c4cc(NC(=O)[C@H](N)CCCNC(=N)N)ccc4OC)ccc3OC)ccc2OC)cc1C(N)=O` [Compound 254], the EC50 amounted to 1640 nM in assay [1], 93 nM in assay [2], 97 nM in assay [3] and 448 nM in assay [4].
The matching figures for `COc1ccc(NC(=O)[C@H](CCCNC(=N)N)NC(=O)c2cc(NC(=O)[C@H](CCCNC(=N)N)NC(=O)c3cc(NC(=O)[C@H](CCCNC(=N)N)NC(=O)c4cc(NC(C)=O)ccc4OC)ccc3OC)ccc2OC)cc1C(=O)N[C@@H](Cc1ccc(O)cc1)C(=O)O` [Compound 301]: 6080 nM, 276 nM, 278 nM and 295 nM.
On the same counts, the results for `COc1ccc(NC(=O)[C@H](CCCCN)NC(=O)c2cc(NC(=O)[C@H](CCCCN)NC(=O)c3cc(NC(=O)[C@H](CCCCN)NC(=O)c4cc(NC(C)=O)ccc4OC)ccc3OC)ccc2OC)cc1C(N)=O` [Compound 328] are 1880 nM, 448 nM, 257 nM and 2330 nM.
On the same counts, the results for `COc1cc(OC)c(C(=O)N[C@H]2CC[C@@H](NC(=O)c3cc(C(N)=O)c(OCCCCCN)cc3OCCCCCN)CC2)cc1C(=O)N[C@H]1CC[C@@H](NC(=O)c2cc(C(N)=O)c(OCCCCCN)cc2OCCCCCN)CC1` [Compound 412] are 687 nM, 125 nM, 113 nM and 197 nM.
`COc1cc(OC)c(C(=O)N[C@H]2CC[C@H](NC(=O)c3cncc(C(=O)O)c3)CC2)cc1C(=O)NCCN` [Compound 401]: the EC50 was over 10000 nM in assay [1], over 5000 nM in assay [2], over 5000 nM in assay [3] and over 10000 nM in assay [4].
For the molecule `COc1ccc(NC(=O)[C@@H](CCCNC(=N)N)NC(=O)c2cc(NC(=O)[C@@H](CCCNC(=N)N)NC(=O)c3cc(NC(=O)[C@@H](CCCNC(=N)N)NC(=O)c4cc(NC(=O)[C@H](N)CCCNC(=N)N)ccc4OC)ccc3OCC(=O)O)ccc2OC)cc1C(N)=O` [Compound 282], the EC50 came out at 2000 nM in assay [1], 121 nM in assay [2], 114 nM in assay [3] and 424 nM in assay [4].
Consider `COc1ccc(NC(=O)[C@@H](CCCNC(=N)N)NC(=O)c2cc(NC(=O)[C@@H](CCCNC(=N)N)NC(=O)c3cc(NC(=O)[C@@H](CCCNC(=N)N)NC(=O)c4cc(NC(C)=O)ccc4OC)ccc3OC)ccc2OC)cc1C(=O)NCC(=O)O` [Compound 294], for which the EC50 turned out to be 2740 nM in assay [1], 264 nM in assay [2], 264 nM in assay [3] and 244 nM in assay [4].
Regarding `COc1ccc(NC(=O)[C@H](CCCCN)NC(=O)c2cc(NC(=O)[C@H](CCCCN)NC(=O)c3cc(NC(=O)[C@H](CCCCN)NC(=O)c4cc(NC(=O)[C@@H](N)CCCCN)ccc4OC)ccc3OC)ccc2OC)cc1C(=O)NCC(=O)O` [Compound 260], the EC50 in assay [1] is 1660 nM and 1410 nM; in assay [2], 399 nM and 284 nM; in assay [3], 247 nM and 215 nM; in assay [4], 5080 nM and 3970 nM.
As to `COc1ccc(NC(=O)[C@H](CCCNC(=N)N)NC(=O)c2cc(NC(=O)[C@H](CCCNC(=N)N)NC(=O)c3cc(NC(=O)[C@H](CCCNC(=N)N)NC(=O)c4cc(NC(=O)[C@@H](N)CCCNC(=N)N)ccc4OCC(=O)O)ccc3OC)ccc2OC)cc1C(N)=O` [Compound 289], the EC50 in assay [1] was determined as 1760 nM; in assay [2] it was 133 nM; in assay [3], 108 nM; in assay [4] it was 508 nM.
On the same counts, the results for `COc1ccc(NC(=O)[C@H](CCCNC(=N)N)NC(=O)c2cc(NC(=O)[C@H](CCCNC(=N)N)NC(=O)c3cc(NC(=O)[C@H](CCCNC(=N)N)NC(=O)c4cc(NC(C)=O)ccc4OC)ccc3OC)ccc2OC)cc1C(=O)NCC(=O)O` [Compound 299] are 2900 nM, 243 nM, 242 nM and 265 nM.
For `COc1cc(OC)c(C(=O)N[C@H]2CC[C@H](NC(=O)c3cc(C(=O)NCCCN)c(OC)cc3OC)CC2)cc1C(=O)O` [Compound 407], the EC50 in assay [1] is over 10000 nM; in assay [2], over 5000 nM; in assay [3] it was over 5000 nM; in assay [4] it was over 10000 nM.
In the case of `COc1ccc(NC(=O)[C@H](CCCCN)NC(=O)c2cc(NC(=O)[C@@H](N)CCCCN)ccc2OC)cc1C(=O)N[C@@H](CCCCN)C(=O)Nc1ccc(OC)c(C(=O)N[C@@H](CCCCN)C(=O)Nc2ccc(OC)c(C(=O)N[C@H](C)C(=O)O)c2)c1` [Compound 277], the EC50 in assay [1] is 1550 nM; in assay [2], 581 nM; in assay [3], 285 nM; in assay [4] it was 10800 nM.
Consider `COc1ccc(NC(=O)[C@H](CCC(=O)O)NC(=O)c2cc(NC(=O)[C@H](CCCCN)NC(=O)c3cc(NC(=O)[C@H](CCCCN)NC(=O)c4cc(NC(=O)[C@@H](N)CCCCN)ccc4OC)ccc3OC)ccc2OC)cc1C(N)=O` [Compound 315], for which the EC50 was 2050 nM in assay [1], 1790 nM in assay [2], 492 nM in assay [3] and over 10000 nM in assay [4].
On to `COc1cc(OC)c(C(=O)N[C@H]2CC[C@@H](NC(=O)c3cc(C(N)=O)c(OCCCCCN)cc3OCCCCCN)CC2)cc1C(=O)N[C@H]1CC[C@@H](N=C(N(C)C)N(C)C)CC1` [Compound 413], for which the EC50 worked out at 7060 nM in assay [1], 4650 nM in assay [2], 2760 nM in assay [3] and 14800 nM in assay [4].
In the case of `COc1cc(OC)c(C(=O)N[C@H]2CC[C@H](NC(=O)c3cccc(C(=O)O)c3)CC2)cc1C(=O)NCCN` [Compound 399], the EC50 in assay [1] was over 10000 nM; in assay [2], over 5000 nM; in assay [3] it was over 5000 nM; in assay [4] it was over 10000 nM.
As for `COc1cc(OC)c(C(=O)Nc2ccc(NC(=O)c3cc(C(=O)Nc4ccc(N=C(N(C)C)N(C)C)cc4)c(OC)cc3OC)cc2)cc1C(=O)NCCN` [Compound 422], the EC50 in assay [1] came out at 1250 nM; in assay [2], 608 nM; in assay [3], 426 nM; in assay [4], 1890 nM.
Consider `COc1cc(OC)c(C(=O)N[C@H]2CC[C@@H](NC(=O)c3cc(C(=O)N[C@H]4CC[C@@H](NC(=O)c5cc(C(=O)NC6CCNCC6)c(OC)cc5OC)CC4)c(OC)cc3OC)CC2)cc1C(=O)NC1CCNCC1` [Compound 417], for which the EC50 in assay [1] was 2220 nM; in assay [2], 495 nM; in assay [3], 200 nM; in assay [4], 1110 nM.
On the same counts, the results for `COc1ccc(NC(=O)[C@H](CCCCN)NC(=O)c2cc(NC(=O)[C@H](CCCCN)NC(=O)c3cc(NC(=O)[C@H](CCCCN)NC(=O)c4cc(NC(=O)[C@H](CCCCN)NC(=O)CCCC(=O)O)ccc4OC)ccc3OC)ccc2OC)cc1C(N)=O` [Compound 344] are 680 nM, 392 nM, 244 nM and 2060 nM.
Take `COc1cc(OC)c(C(=O)N2CCC(CNC(=O)c3cc(C(=O)NCCN)c(OC)cc3OC)CC2)cc1C(=O)O` [Compound 396]: the EC50 in assay [1] was over 10000 nM; in assay [2], over 5000 nM; in assay [3], over 5000 nM; in assay [4] it was over 10000 nM.
For the molecule `COc1cc(OC)c(C(=O)N2CCC(NC(=O)c3cc(C(=O)NCCN)c(OC)cc3OC)CC2)cc1C(=O)O` [Compound 394], the EC50 in assay [1] is over 10000 nM; in assay [2] it was over 5000 nM; in assay [3], over 5000 nM; in assay [4], over 10000 nM.
Turning to `COC(=O)CCC(=O)N[C@@H](CCCCN)C(=O)Nc1ccc(OC)c(C(=O)N[C@@H](CCCCN)C(=O)Nc2ccc(OC)c(C(=O)N[C@@H](CCCCN)C(=O)Nc3ccc(OC)c(C(=O)N[C@@H](CCCCN)C(=O)Nc4ccc(OC)c(C(N)=O)c4)c3)c2)c1` [Compound 338], the EC50 was determined as 241 nM in assay [2], 176 nM in assay [3] and 2750 nM in assay [4].
Turning to `COc1cc(OC)c(C(=O)N[C@H]2CC[C@@H](NC(=O)c3cc(C(=O)NCCN(C)C)c(OCCNC(=N)N)cc3OCCNC(=N)N)CC2)cc1C(=O)N[C@H]1CC[C@@H](NC(=O)c2cc(C(=O)NCCN(C)C)c(OCCNC(=N)N)cc2OCCNC(=N)N)CC1` [Compound 225], the EC50 in assay [1] is 12100 nM; in assay [2], 1060 nM; in assay [3] it was 359 nM.
Consider `COc1cc(OC)c(C(=O)N[C@H]2CC[C@H](NC(=O)c3cc(C(=O)NCCN(C)C)c(OCCNC(=N)N)cc3OCCNC(=N)N)CC2)cc1C(=O)N[C@H]1CC[C@H](NC(=O)c2cc(C(=O)NCCN(C)C)c(OCCNC(=N)N)cc2OCCNC(=N)N)CC1` [Compound 226], for which the half-maximal effective concentration (EC50) in assay [1] was 12900 nM; in assay [2], 852 nM; in assay [3] it was 343 nM.
As for `COC(=O)CCCC(=O)N[C@@H](CCCCN)C(=O)Nc1ccc(OC)c(C(=O)N[C@@H](CCCCN)C(=O)Nc2ccc(OC)c(C(=O)N[C@@H](CCCCN)C(=O)Nc3ccc(OC)c(C(=O)N[C@@H](CCCCN)C(=O)Nc4ccc(OC)c(C(N)=O)c4)c3)c2)c1` [Compound 341], the figures for the EC50 in assay [2], in assay [3] and in assay [4] were 198 nM, 138 nM and 1580 nM, respectively.
With `COc1ccc(NC(=O)[C@H](CCCCN)NC(=O)c2cc(NC(=O)[C@H](CCCCN)NC(=O)c3cc(NC(=O)[C@H](CCCCN)NC(=O)c4cc(NC(=O)[C@H](CCCCN)NC(=O)c5ccccc5C(=O)O)ccc4OC)ccc3OC)ccc2OC)cc1C(N)=O` [Compound 343], the EC50 in assay [2] came to 235 nM; in assay [3], 201 nM; in assay [4], 932 nM.

As a reminder, the EC50 is the concentration at which the effect is half-maximal.
